Reference: US7087608B2, “Use of PDGF receptor tyrosine kinase inhibitors for the treatment of diabetic nephropathy” (priority 2000, dated 2006)

Tested on: male Wistar rats with anti-Thy-1 nephritis
Assay: Mesangial proliferative glomerulonephritis (anti-Thy-1 nephritis) induced with OX-7 antibody
Type: in vivo, rat
Description: Mesangial proliferative Glomerulonephritis induced in Male Wistar Rats with monoclonal OX-7, anti-rat Thy-1.1 Antibody
Monoclonal OX-7, anti-rat Thy-1.1 antibody is used for the induction of mesangial proliferative glomerulonephritis (D. W. Mason and A. F. Williams, Biochem. J. 187(1), 1980, 1–20), macrophages are detected using ED1, anti-rat CD68 (C. D. Dijkstra et al., Immunology 54(3), 1985, 589–99) myofibroblasts are identified by labelling with 1A4, anti-human a smooth muscle actin (Sigma Immunochemicals, St. Louis, Mo.) and M744, anti-BrdU (Dako, Glostrup, Denmark) is used to identify proliferating cells. A polyclonal goat anti-bovine/anti-human type IV collagen antibody (Southern Biotechnology, Birmingham, Ala.) is used to examine extracellular matrix.
Anti-Thy-1 nephritis is induced in two groups of 8 male Wistar rats (150–170 g) by i.v. injection of 5 mg/kg OX-7 IgG (D. J. Nikolic-Paterson et al., J. Am. Soc. Nephrol. 7(7), 1996, 1006–14). […] A group of 8 normal rats are also injected with BrdU 3 hours before sacrifice.
Twenty-four hour urine collections and blood samples are taken on days-3 (prior to test) and day 6. Urinary protein concentration is measured by the benzethonium chloride method (Iwata, J. et al., Clin. Chem. 25(7), 1979, 1317–9). Serum and urine creatinine levels are measured using the Jaffé rate reaction (Larsen, K., Clin. Chim. Acta 41, 1972, 209–17).
Tissues are fixed in 4% neutral buffered-formalin and embedded in paraffin. Kidney sections (4 μm) are stained with periodic-acid Schiff's reagent (PAS). Quantitation of nuclei is performed by examining 50 hilar glomeruli per animal.
Immunostaining is performed as described by Rumble et al., J. Clin. Invest. 99, 1997, 1016–1027. Double immunohistochemical staining is performed in formalin fixed tissue sections using a microwave-based technique to prevent antibody cross-reactivity (G. H. Tesch, et al, Am. J. Pathol. 151(1), 1997, 141–50).
Sections stained with either BrdU or ED1 antibody are scored for ED1+ or BrdU+. Counting is undertaken using a graticule to measure glomerular tuft area and confined to the glomerular tuft thereby omitting cells within the capillary lumen. Fifty glomeruli are scored for each animal and labelled cells expressed as the mean±SD per mm^2. In addition, the number of cells in double-labelled sections are also scored as ED1+BrdU+, ED1+BrdU− and ED1−BrdU+.
The magnitude of immunostaining for type IV collagen is quantified using computer assisted image analysis as previously described (H. A. Lehr et al., J. Histochem. Cytochem. 45(11), 1997, 1559–65).

[1] = 50 mg/kg daily i.p., day 6, 50 hilar glomeruli per animal, p<0.05

## Cc1ccc(NC(=O)c2ccc(CN3CCN(C)CC3)cc2)cc1Nc1nccc(-c2cccnc2)n1 [CGP 57148B, N-{5-[4-(4-methyl-piperazino-methyl)-benzoylamido]-2-methylphenyl}-4-(3-pyridyl)-2-pyrimidine-amine]
50 mg/kg daily i.p. from day 1 after OX-7 IgG, day 6, 24-hour urine
  Proteinuria: 16.4±7.0 mg/24 hours
50 mg/kg daily i.p., day 6, 50 hilar glomeruli per animal, p<0.001
  Mesangial cell (BrdU+ED1−) proliferation per glomerular cross section (FIG. 2): significantly reduced
[1]
  Glomerular hypercellularity, nuclei per glomerular cross section (FIG. 1): significantly reduced
  Number of activated mesangial cells (a-smooth muscle actin positive) (FIG. 3): significantly reduced
50 mg/kg daily i.p., day 6, image analysis, p<0.05 versus untreated rats
  Glomerular matrix accumulation of immunostainable type IV collagen (FIG. 4): significantly reduced
50 mg/kg daily i.p., killed on day 6
  Mesangial hypercellularity and increased mesangial matrix in PAS-stained kidney sections: not observed
